In patent US20220128542A1, “TREATMENT EFFICIENCY EVALUATION” (TX MEDIC AB, priority 2019, published 2022):

System: Human Schwann cells
Test: Gene expression array and pathway/upstream regulator analysis in Schwann cells (Example 2)
Format: cell-based
Conditions: 0.01 mg/ml
Description: For each cell line, n=8×25 cm^2 culture flasks were set up. Two flasks were harvested for each cell type on the day of treatment (24 hours after seeding). This represents the Day0 time point. From the remaining flasks, three flasks were treated with Control Medium and three were treated with Culture Medium (CM) containing LMW-DS to give a final concentration of 0.01 mg/ml. Cells from the treated flasks were collected after 48 hours. Therefore the collected data represent (a) untreated cells (Day0 Controls and Day2 Controls) and (b) cells treated with LMW-DS for 48 hours (Day2 LMW-DS treated).
25 cm^2 flasks were coated by adding 2 ml per flask of a solution of 50 μg/ml poly-d-lysine in Hank's balanced salt solution (HBSS) and incubating overnight at 37° C. in the dark. Flasks were washed with cell culture water and air-dried for 30 min in the dark. Flasks were coated by adding 1 ml per flask of a solution of 25 μg/ml laminin in phosphate-buffered saline (PBS) and incubating for 2 hour at 37° C. in the dark. The laminin flasks were washed with PBS three times before plating cells.
Schwann cells growth medium was prepared by adding 10% of fetal bovine serum (FBS) to high-glucose DMEM and pre-warmed to 37° C. Cells were thawed in a 37° C. water bath for no longer than 2 min.
Cells from 12 vials were each gently transferred to a tube containing 10 ml of high-glucose DMEM medium and centrifuged at 400 relative centrifugal field (RCF) for 10 min. Pellet was re-suspended in culture medium. The cells from the 12 vials were mixed and distributed equally into the previously coated 25 cm^2 flasks (n=8). Cells were incubated at 37° C. with 5% CO2. Cells were allowed to settle for 24 hours before LMW-DS treatment.
A fresh 100× LMW-DS stock (1.0 mg/ml) was prepared in sterile DMEM-F12. The concentrated drug stock was sterile filtered and added to the respective culture media (19.6 ml CM and 0.4 ml LMW-DS stock solution). The Control was made using 19.6 ml CM and 0.4 ml of DMEM-F12. LMW-DS and CM were added to the respective flasks (5 ml each) to reach the 0.01 mg/ml concentration of LMW-DS in each dish with a total of 10 ml CM each.
CM was aspirated into a clean and labelled 15 ml Falcon tube. The flasks (without culture medium) were placed into the −80° C. freezer for 30 minutes. The CM in the Falcon tubes was spun at 3000×g for 5 minutes. Supernatant was removed and the small pellet was re-suspended in 2.5 ml Trizol:Water (4:1) solution at room temperature (RT, ˜22° C.).
The frozen flasks were removed one-by one from the freezer and the Trizol-Water from the appropriate tubes was moved to the flask. Flasks were left at RT for 5 minutes before the content was aspirated back into the 15 ml Falcon tube (after washing the bottom of the flask with the solution thoroughly). The flasks were inspected under the microscope to ensure full removal of cells. The collected lysates in the 15 ml Falcon tubes were placed into the −80° C. freezer.
Falcon tubes containing the homogenates were removed from the freezer and stored for 5 minutes at RT to permit the complete dissociation of nucleoprotein complexes.
Two aliquots of 1 ml lysate were removed from each sample and 200 μl of chloroform was added to each (0.2 ml of chloroform per 1 ml of TRIzol Reagent used during the cell lysis step) and the tube was shaken vigorously. Samples were stored at RT for 2-3 minutes and subsequently centrifuged at 12,000×g for 15 minutes at 4° C.
The mixture separated into three layers: a lower red phenol-chloroform phase, an interphase and a colorless upper aqueous phase. The RNA remained in the top aqueous phase, DNA in the white middle (interphase) phase and protein in the pink bottom (organic) phase. The top ¾ of the aqueous phase was transferred to a new clean Eppendorf tube.
The RNA was precipitated from the aqueous phase by adding an equal amount of 100% ethanol. The precipitated RNA was fixed onto a Spin Cartridge, washed twice and dried. […]

sodium salt of dextran sulfate [LMW-DS] was tested, and the “number of genes: no effect / abolished nutrient effect” value (48 hours) was 21, the “number of genes: no effect / total” value (48 hours) was 21 and the “number of genes: significant downregulation / abolished nutrient effect” value (48 hours) was 1. For the same substance, the “number of genes: significant downregulation / enhanced response to nutrients” value (48 hours) was 122, the “number of genes: significant downregulation / new effect induced by LMW-DS” value (48 hours) was 352 and the “number of genes: significant downregulation / not different from control” value (48 hours) was 42. For the same substance, the “number of genes: significant downregulation / total” value (48 hours) was 517, the “number of genes: significant upregulation / abolished nutrient effect” value (48 hours) was 13 and the “number of genes: significant upregulation / enhanced response to nutrients” value (48 hours) was 441. For the same substance, the “number of genes: significant upregulation / new effect induced by LMW-DS” value (48 hours) was 74, the “number of genes: significant upregulation / not different from control” value (48 hours) was 373 and the “number of genes: significant upregulation / total” value (48 hours) was 901. The “number of genes: total / abolished nutrient effect” value (48 hours) was 35, the “number of genes: total / enhanced response to nutrients” value (48 hours) was 563 and the “number of genes: total / new effect induced by LMW-DS” value (48 hours) was 426. For the same substance, the “number of genes: total / not different from control” value (48 hours) was 415, the “number of genes: total / total” value (48 hours) was 1439 and the differentially expressed genes (D0 control vs D2 LMW-DS treated) was 1244 genes. For the same substance, the differentially expressed genes (D2 control vs D2 LMW-DS treated) was 700 genes.
